Assay [1] concerns Non-alcoholic steatohepatitis model mice (C57BL/6NASH mice). Briefly: Weight gain in hepatitis model mice (Test Example 2). Particulars: Resveratrol group (group R): feed blended with 0.4 mass % of resveratrol, ad libitum. In kind it is in vivo.
For assay [2] the test system is unchanged. In words: Pathology evaluation of liver tissue by HE stain (Test Example 5). It counts as in vivo. Particulars: group R: feed with 0.4 mass % of resveratrol; vs control group. An excerpt:
Non-alcoholic steatohepatitis model mice (Japan Charles River Co., Ltd., C57BL/6NASH mice, male) were purchased at the age of six weeks, acclimated for two days, and reared six per cage. The mice were reared in a constant temperature/constant humidity room maintained on a 12-hour light-dark cycle (light: 8 a.m. to 8 p.m.). After the acclimation phase, the feeds shown below were fed ad libitum in accordance with the test group. • Control group (group C): control feed not blended with test substance • Resveratrol group (group R): feed blended with 0.4 mass % of resveratrol (Tokyo Chemical Industry Co., Ltd.) • ARs high dose group (group AH): feed blended with 0.9 mass % of ARs • ARs low dose group (group AL): feed blended with 0.3 mass % of ARs The body weight was measured once a day during the test phase. Blood samples were also drawn once a week. Blood was drawn from the caudal vein of the mice, and plasma was obtained. The plasma was stored at −80° C. until being used in measurement. Also, after the body weight was measured on the final day of the test, blood was drawn under anesthesia by diethyl ether. The liver was removed immediately after sacrifice, weighed, and frozen by dry ice. The liver was divided into halves, and each was placed in a 1.5 mL tube and frozen at −80° C. Frozen liver tissue was embedded in paraffin and sliced. […]

For assay [3], the system named is intracellular mitochondria number of liver tissue. In words: Intracellular mitochondria number of liver tissue, weight ratio of mitochondrial DNA to genomic DNA (Test Example 8). It counts as in vivo, mice. The following applies: group R: feed with 0.4 mass % of resveratrol; vs control group. The protocol:
In this test example, the intracellular mitochondria number of the liver tissue was examined. Specifically, the intracellular mitochondria number of the liver tissue was evaluated by comparing the weight ratio of mitochondrial DNA to genomic DNA, measured by quantitative PCR as follows. DNA was extracted from liver tissue using a “NucleoSpin (registered trademark) Tissue kit (manufactured by Takara Bio Inc.)” according to the company's instructions. Each DNA copy number was quantified using a “Mouse Feeder Cell Quantification Kit (manufactured by Takara Bio Inc.)” according to the company's instructions. Primers having the following sequences were used. The PCR reaction was carried out under the following conditions. (95° C.,30 seconds→95° C.,5 seconds→60° C.,30 seconds)×40 cycles→95° C.,60 seconds For the weight ratio of measured mitochondrial DNA to genomic DNA, the relative values of each group were compared, taking the control group (group C) as 100%.

The test system of assay [4] is Non-alcoholic steatohepatitis model mice (C57BL/6NASH mice). Briefly: ALT value in plasma (Test Example 3). In kind it is in vivo. The following applies: group R: feed with 0.4 mass % of resveratrol; week 0 to week 4; vs control group. An excerpt: (§1) Non-alcoholic steatohepatitis model mice (Japan Charles River Co., Ltd., C57BL/6NASH mice, male) were purchased at the age of six weeks, acclimated for two days, and reared six per cage. The mice were reared in a constant temperature/constant humidity room maintained on a 12-hour light-dark cycle (light: 8 a.m. to 8 p.m.). After the acclimation phase, the feeds shown below were fed ad libitum in accordance with the test group. • Control group (group C): control feed not blended with test substance • Resveratrol group (group R): feed blended with 0.4 mass % of resveratrol (Tokyo Chemical Industry Co., Ltd.) • ARs high dose group (group AH): feed blended with 0.9 mass % of ARs • ARs low dose group (group AL): feed blended with 0.3 mass % of ARs The body weight was measured once a day during the test phase. Blood samples were also drawn once a week. Blood was drawn from the caudal vein of the mice, and plasma was obtained. The plasma was stored at −80° C. until being used in measurement. Also, after the body weight was measured on the final day of the test, blood was drawn under anesthesia by diethyl ether. The liver was removed immediately after sacrifice, weighed, and frozen by dry ice. […] The aspartate aminotransferase (AST) value and alanine aminotransferase (ALT) value in the plasma, which are general indicators of liver function, were measured. […]

For assay [5] the test system is unchanged. In words: Triglyceride level in liver tissue (Test Example 4). In kind it is in vivo. Particulars: group R: feed with 0.4 mass % of resveratrol; control group 130 mg/g. An excerpt: Non-alcoholic steatohepatitis model mice (Japan Charles River Co., Ltd., C57BL/6NASH mice, male) were purchased at the age of six weeks, acclimated for two days, and reared six per cage. The mice were reared in a constant temperature/constant humidity room maintained on a 12-hour light-dark cycle (light: 8 a.m. to 8 p.m.). After the acclimation phase, the feeds shown below were fed ad libitum in accordance with the test group. • Control group (group C): control feed not blended with test substance • Resveratrol group (group R): feed blended with 0.4 mass % of resveratrol (Tokyo Chemical Industry Co., Ltd.) • ARs high dose group (group AH): feed blended with 0.9 mass % of ARs • ARs low dose group (group AL): feed blended with 0.3 mass % of ARs The body weight was measured once a day during the test phase. Blood samples were also drawn once a week. Blood was drawn from the caudal vein of the mice, and plasma was obtained. The plasma was stored at −80° C. until being used in measurement. Also, after the body weight was measured on the final day of the test, blood was drawn under anesthesia by diethyl ether. The liver was removed immediately after sacrifice, weighed, and frozen by dry ice. […] A quantity of 0.5 mL of normal saline was added to the recovered supernatant and mixed for several seconds. […] The resultant mixture served as a sample, and the triglyceride level was measured. […]

For assay [6] the test system is unchanged. In words: AST value in plasma (Test Example 3). It counts as in vivo. The following applies: group R: feed with 0.4 mass % of resveratrol; week 0 to week 4; vs control group.
Text: as §1

SMILES strings stand for the structures.

Consider `Oc1ccc(C=Cc2cc(O)cc(O)c2)cc1` [resveratrol], for which, in assay [1], the “weight gain during the test phase” value is reported as “weight gain suppression in the hepatitis model mice could not be improved”. The “blank spaces derived from fat droplets in HE stained liver tissue” value in assay [2] is listed as “virtually no effect was seen”. In addition, the “intracellular mitochondria number of liver tissue (weight ratio of mitochondrial DNA to genomic DNA)” value in assay [3] is reported as “no changes in intracellular mitochondria number were seen”. Moreover, the “changes in ALT value in plasma” value in assay [4] is “the changes were almost the same as the control group”. Besides, the “triglyceride level in liver tissue” value in assay [5] is given as “could not be corrected”. Also, in assay [6], the “changes in AST value in plasma” value is “the changes were almost the same as the control group”.
